Assay results: patent publication US20170202936A1, “Identification, Optimization And Use Of Cryptic HLA-B7 Epitopes For Immunotherapy” (VAXON BIOTECH, priority 2006, published 2017)
“Also recorded” adds a separate entry of the source. No end group written: not given here.

Columns and labels:
[1] = system: HLA-B*0702 transgenic mice; assay: CTL induction in vivo in HLA-B*0702 transgenic mice (immunogenicity, cytotoxic assay on peptide-loaded RMA-B7 targets); design: key: +: means that a specific immunoresponse was generated at least one HLA-B*0702 transgenic mice; conditions: Table IV
Description: (§1) CTL Induction in vivo in HLA-B*0702 Transgenic Mice. Mice were injected subcutaneously with 100 μg of peptide emulsified in Incomplete Freund's Adjuvant (IFA) in the presence of 150 μg of the I-A^b restricted HBVcore128 T helper epitope ([…], SEQ ID NO: 10). After 11 days, 5×10^7 spleen cells were stimulated in vitro with peptide (10 μM). On day 6 of culture, the bulk responder populations were tested for specific cytotoxicity.
(§2) Cytotoxic assay. Targets were labelled with 100 μCi of Cr^51 for 60 min, plated in 96-well V-bottomed plates (3×10^3 cell/well in 100 μL of RPMI 1640 medium) and, when necessary, pulsed with peptides (1 μM) at 37° C. for 2 hours. Effectors were then added in the wells and incubated at 37° C. for 4 hours. Percentage of specific lysis was determined as: % Lysis=(Experimental Release−Spontaneous Release)/(Maximal Release−Spontaneous Release)×100.
(§3) HLA-B7 transgenic mice were vaccinated with the selected peptides, and eleven days later, their spleen cells were in vitro stimulated with the peptide.

HLA-B*0702 = biological target: T1, HLA-B*0702 (Homo sapiens, UniProt P01889); assay: Measurement of peptide relative affinity to HLA-B*0702 (T2-B7 cells, ME-1 mAb staining); format: binding; conditions: for RA (relative affinity for HLA-B*0702): T2-B7 cells, 16 hours 37° C., ratio of concentrations inducing 20% HLA-B*0702 expression vs reference peptide CMV265-274; for RA: class symbols, Table IV
T1 construct: expressed in transfected cells; host or cells: human T2 cells transfected with HLA-B*0702 (T2-B7)
Description: The affinity of a peptide for HLA-B*0702 can be determined by methods known in the art, for instance by the assay described by Rohrlich et al., 2003. Results are expressed as relative affinity (RA) when compared to a reference peptide. […] Peptides with RA greater than 10 are therefore considered to be cryptic peptides (or epitopes).
Measurement of Peptide Relative Affinity to HLA-B*0702. The protocol used has been described previously (Rohrlich et al., 2003). Briefly, T2-B7 cells were incubated at 37° C. for 16 hours with peptides concentrations ranging from 100 μM to 0.1 μM, and then stained with ME-1 monoclonal antibody (mAb) to quantify the surface expression of HLA-B*0702. For each peptide concentration, the HLA-B*0702 specific staining was calculated as the percentage of staining obtained with 100 μM of the reference peptide CMV265-274 (R10V; […], SEQ ID NO: 9). The relative affinity (RA) was determined as: RA=(Concentration of each peptide that induces 20% of HLA-B*0702-expression/Concentration of the reference peptide that induces 20% of HLA-B*0702 expression).

[2] = system: HLA-B*0702 transgenic mice; assay: CTL induction in vivo in HLA-B*0702 transgenic mice (immunogenicity, cytotoxic assay on peptide-loaded RMA-B7 targets); design: key to Corresponding native peptide cross-reconnaissance: + for immunogenicity or native peptide cross recognition means that the peptide induced a specific response in at least one HLA-B*0702 transgenic mouse, able to recognized the corresponding native peptide; conditions: for Immunogenicity: specific CTL immune response (in words) / Recognition of the native peptide by CTL generated with the optimized peptide (in words): HLA-B*0702 transgenic mice; for Corresponding native peptide cross-reconnaissance: CTL induced in HLA-B*0702 transgenic mice
Description: as §1, §2, §3

T2-B7 targets = assay: Generation of CTL from human PBMC of healthy donors, cytotoxicity against peptide-loaded T2-B7 targets; format: cell-based; conditions: one responding donor
Description: (§4) Generation of CTL from human PBMC. PBMC were collected by leukapheresis from healthy HLA-B*0702 volunteers. Dendritic cells (DC) were produced from adherent cells cultured for seven days (2×10^6 cells/ml) in the presence of 500 IU/ml GM-CSF and 500 IU/ml IL-4 (R&D Systems, Minneapolis, Minn.) in complete medium (RPMI-1640 supplemented with 10% heat inactivated human AB serum, […] L-Glutamine and antibiotics). On day seven, DC were pulsed with 10 μM peptides for 2 hrs; maturation agents Poly I:C (Sigma, Oakville, Canada) at 100 ng/ml and anti-CD40 mAb (clone G28-5, ATCC, Manassas, Va.) at 2 μg/ml were added in the culture and DCs were incubated at 37° C. overnight or up to 48 hours. Mature DC were then irradiated (3500 rads). CD8+ cells were purified by positive selection with CD8 MicroBeads (Miltenyi Biotec, Auburn, Calif.) according to the manufacturer's instructions. 2×10^5 CD8^+ cells+6×10^4 CD8^− cells were stimulated with 2×10^4 peptide pulsed DC in complete culture medium supplemented with 1000 IU/ml IL-6 and 5 IU/ml IL-12 (R&D Systems, Minneapolis, Minn.) in round-bottomed 96 well plates. […]
(§5) Cytotoxic assay. […] Percentage of specific lysis was determined as: % Lysis=(Experimental Release−Spontaneous Release)/(Maximal Release−Spontaneous Release)×100.

[3] = system: SK-MES-1, HBL-100, SW-480 and HSS human tumor cell lines; assay: Cytotoxicity of peptide-induced human CTL against human tumor cell lines; format: cell-based; conditions: one responding donor
Description: Cells. HLA-B*0702 transfected murine RMA-B7 and human T2-B7 cells were previously described (Rohrlich et al., 2003). COS-7 and WEHI-164 clone 13 cells were provided by F. Jotereau (INSERM 463, Nantes, France). The HLA-B*0702 positive SK-MES-1 (lung cancer), HBL-100 (breast cancer), and the HLA-B*0702 negative SW-480 (colon cancer) and HSS (myeloma) cell lines were used as targets of human CTL. All cell lines were grown in FCS 10% supplemented RPMI1640 culture medium.
as §4, with “rads).” for “rads). CD8+ cells were purified by positive selection with CD8 MicroBeads (Miltenyi Biotec, Auburn, Calif.) according to the manufacturer's instructions. 2×10^5 CD8^+ cells+6×10^4 CD8^− cells were stimulated with 2×10^4 peptide pulsed DC in complete culture medium supplemented with 1000 IU/ml IL-6 and 5 IU/ml IL-12 (R&D Systems, Minneapolis, Minn.) in round-bottomed 96 well plates.”
as §5

RMA-B7 targets = assay: Lysis of RMA-B7 targets loaded with decreasing peptide concentrations by murine CTL; format: cell-based; conditions: CTL from mice immunized with TERT444A1, restimulated in vitro with native TERT444, read-out: Half maximal lysis of peptide loaded targets
Description: as §1, §2

[4] = system: HLA-B*0702 transgenic mice; assay: CTL induction in vivo in HLA-B*0702 transgenic mice (immunogenicity, cytotoxic assay on peptide-loaded RMA-B7 targets); design: key: + for immunogenicity or native peptide cross recognition means that the peptide induced a specific response in at least one HLA-B*0702 transgenic mouse, able to recognized the corresponding native peptide; conditions: Table V
Description: as §1, §2, §3

Sequence	Immunogenicity [1]	Immunogenicity: specific CTL immune response (in words) [2]	Affinity for HLA-B*0702 (in words) (HLA-B*0702)	RA (HLA-B*0702)	also measured
APRQLGREL (a HLA-B*0702 restricted peptide)	+				
APEEISSMVL (HSP70_115A1 optimized peptide) [Hsp70 115A1]					RA (relative affinity for HLA-B*0702) (HLA-B*0702): >10
APRSPLAPS (HER-2/neu1069 HLA-B*0702 restricted cryptic epitope) [Her2/neu1069]		not immunogenic			
APLSLGLET (Hsp70 397 antigen peptide)		Only the high affinity TERT4 was immunogenic	low affinity		RA (relative affinity for HLA-B*0702) (HLA-B*0702): >10
YPEEISSMVL (peptide of Hsp70_115) [Hsp70 115]		Only the high affinity TERT4 was immunogenic	low affinity; also recorded: non binders		
APRCRAVRSL [TERT4]					Cytotoxicity of human CTL against peptide-loaded T2-B7 targets (T2-B7 targets): killed T2-B7 targets presenting TERT4 but not T2-B7 cells presenting the irrelevant Nef peptide; Cytotoxicity of human CTL against human tumor cell lines [3]: killed the HLA-B*0702 TERT+SK-MES-1 and HBL-100 but not the HLA-B*0702-TERT+SW-480 and HSS human tumor cell lines
APRPWTPCL (a HLA-B*0702 restricted peptide)	+			+ (+ = 1 < RA < 10)	
GPKHSDCLA (HER-2/neu246 HLA-B*0702 restricted cryptic epitope) [Her2/neu246]		not immunogenic			
APRSLGLEL (HSP70_397R3L9 optimized peptide) [Hsp70397R3L9]	+	induced an immune response in the majority of vaccinated mice	strong affinity	++ (++ = RA < 1)	Recognition of the native peptide by CTL generated with the optimized peptide (in words) [2]: recognized the optimized peptide but not the corresponding native peptide
APRVSIRLPL (EphA2)				++ (++ = RA < 1)	
APRMHCAVDL (EphA2)	+			++ (++ = RA < 1)	
EPFTKAEML (MAGE-A121.2 antigen peptide)			low affinity		RA (relative affinity for HLA-B*0702) (HLA-B*0702): >10
SPKANKEIL (HER-2/neu760 HLA-B*0702 restricted cryptic epitope) [Her2/neu760]		not immunogenic			
EPITKAEIL (MAGE-A121.4 antigen peptide)			low affinity		RA (relative affinity for HLA-B*0702) (HLA-B*0702): >10
APRASSPLL (a HLA-B*0702 restricted peptide)	+				
APRMPEAAL (a HLA-B*0702 restricted peptide)	+				
APRALVETL (MAGE-A antigen peptide)	+			+ (+ = 1 < RA < 10)	
DPRRLVQLL [TERT444]		Only the high affinity TERT4 was immunogenic; also recorded: not immunogenic	low affinity		RA (relative affinity for HLA-B*0702) (HLA-B*0702): >10; EC50 (RMA-B7 targets): 5.5 nM
APVTKAEML (MAGE-121.1 A1 optimized peptide) [MAGE-121.1/A1]					RA (relative affinity for HLA-B*0702) (HLA-B*0702): >10
APRGVPQIEL (a HLA-B*0702 restricted peptide)	+				
APREISSMVL (HSP70_115A1R3 optimized peptide) [Hsp70115A1R3]	+	induced an immune response in the majority of vaccinated mice	strong affinity	+ (+ = 1 < RA < 10)	Recognition of the native peptide by CTL generated with the optimized peptide (in words) [2]: recognized the optimized peptide but not the corresponding native peptide
APRRRLGCEL (TERT antigen peptide)	+			+ (+ = 1 < RA < 10)	
APRSPLAPL (Her-2/neu1069L9 optimized peptide derived from the cryptic peptide of SEQ ID NO2) [Her2/neu1069L9]	+			++ (++ = RA < 1)	Corresponding native peptide cross-reconnaissance [2]: +; Immunogenicity [4]: +
APKHSDCLA (Her-2/neu246A1 optimized peptide derived from the cryptic peptide of SEQ ID NO4) [Her2/neu246A1]	+				Corresponding native peptide cross-reconnaissance [2]: +; Immunogenicity [4]: +
APRTKAEML (MAGE-121.1 A1R3 optimized peptide)	+			+ (+ = 1 < RA < 10)	
YPVTNAVITV (Hsp70 137(10) antigen peptide) [Hsp70 137 (10)]		Only the high affinity TERT4 was immunogenic	low affinity; also recorded: non binders		
EPVTKAEML [MAGE-A121.1]			low affinity		RA (relative affinity for HLA-B*0702) (HLA-B*0702): >10
APKANKEIL (Her-2/neu760A1 optimized peptide derived from the cryptic peptide of SEQ ID NO3) [Her2/neu760A1]	+				Corresponding native peptide cross-reconnaissance [2]: +; Immunogenicity [4]: +
APREYVNAL (Her-2/neu)	+			+ (+ = 1 < RA < 10)	
